# Experiments:
# [1] = test system: SHh signaling; test: SHh signaling in pericytic C3H10T1/2 cell cultures (qRT-PCR); format: cell-based, Mouse; conditions: pericytic C3H10T1/2 cells, SHh plus IPI-926
# Experimental: To test this, a model of pericyte cell differentiation, the C3H10T1/2 cells was evaluated. C3H10T1/2 cells were differentiated in vitro into pericytes. C3H10T1/2 cells are believed to be pluripotent mesenchymal cells, which can be induced to differentiate into multiple different cell lineages, including myoblasts, adipocytes, osteoblasts and pericytes (Taylor, et al. (1979) Cell 17(4):771-9). In this case, cells are cultured to confluence and then allowed to differentiate over the course of 5 additional days of culture. At this time, the cells are seen to express high levels of CD13, an established marker of pericytes.
# We subsequently explored if SHh signaling was intact in these pericyte cultures. In a typical experiment, confluent C3H10T1/2 cells were allowed to differentiate into pericyte-like cells. After 5 days in culture, SHh with or without IPI-926 were added to the cells in the presence of normal serum. On day 8 of culture, cells were re-fed SHh with or without IPI-926 and shifter to low serum. qRT-PCR analysis was performed on day 9. SHh signaling was detected in these cells as measured by Gli1 mRNA upregulation; the SHh signaling was inhibited by IPI-926 (FIG. 28). Cells were treated on day 8; Gli1 mRNA levels were evaluated in control samples, after SHh addition, after SHh and IPI-926 and cells treated with IPI-926 alone as shown in FIG. 28. […]
# [2] = test system: Hedgehog pathway; conditions: after single administration; cited from earlier work
# [3] = test system: Gli1 mRNA; test: Real-time RT-PCR of Gli1 mRNA in laser capture microdissected BCC tumor samples; format: in vivo, human; conditions: post-treatment versus pre-treatment, BCC patients
# Experimental: As a comparison, real-time RT-PCR was performed using RNA extracted from Laser Capture Microdissected tumor samples from BCC patients. The ddCt method was used to calculate the real-time PCR results (Livak K. J. et al. (2001) Methods. 25(4):402-8). FIG. 27 is a bar graph depicting the quantitation of Gli1 mRNA pre- and post treatment with IPI-926. Although a decrease level of Gli1 mRNA is detected post-treatment, the level of reduction is not as pronounced as that detected by evaluating nuclear localization of Gli1.
# [4] = test system: tumor stroma; test: Microvascular density (CD31 IHC) in tumor; format: in vivo; conditions: after treatment with IPI-926
smiles,measurement,setting,value
CC1=C2C[C@H]3[C@@H](CC[C@@H]4C[C@H](NS(C)(=O)=O)CC[C@@]43C)[C@@H]2CC[C@@]2(C1)O[C@@H]1C[C@H](C)CN[C@H]1[C@H]2C [IPI-926],SHh-induced Gli1 mRNA upregulation,[1],inhibited
same,SHh-induced downregulation of RGS5 mRNA,[1],reversed
same,Hedgehog pathway inhibition in stromal cells,[2],rapid and sustained Hedgehog pathway inhibition
same,level of Gli1 mRNA,[3],decrease
same,"microvascular density (MVD, CD31 IHC)",[4],increased
